Data as given in patent publication US20240197772A1, “COMPOSITIONS COMPRISING ONE OR MORE HMO'S WITH A CORE OF LacNAc-Lac” (FrieslandCampina Nederland B.V., priority 2020, published 2024).

Legend:
Primary human adipocytes = assay: Adipocyte glucose uptake assay (3H-2-deoxyglucose); type: cell-based; settings: 2 hours incubation; compared with vehicle control DMSO and insulin 100 nM positive control; LPS 2 ng/mL
From the text: • 1. Subcutaneous preadipocytes from Zen-Bio Inc were thawed and plated into appropriate experimental plate format. • 2. Upon thawing cells, culturing followed differentiation schedule below: • Day Treatment • 1 Plate cells in PM-1 • 2 Differentiate cells using DM-2 • 9 Feed cells Maintenance medium AM-1 • 16 Assay cells for lipid accumulation, lipolysis, glucose uptake or RNAseq. • 1. Primary human adipocytes were differentiated in 96-well isoplates • 2. At 14 days post differentiation, the cells were treated with glucose uptake starvation media (Zen-Bio Inc) overnight. • 3. The next morning, the cells were washed with assay buffer and the cells were treated with compounds in glucose assay buffer containing ^3H-2-deoxyglucose cocktail and the cells were incubated at 37° C., 5% CO2 and allowed to incubate for 2 hours. • 4. After 2 hours, the cells were washed with PBS, lysed, and mixed with Optiphase “Supermix” scintillation fluid (Zen-Bio Inc). The Counts Per Minute (CPM) of each well measured. • Vehicle control: DMSO (control) • Zen Bio Insulin positive control: 100 nM (insulin) • Control for possible endotoxin contamination of pHMOs: […]

CD36 = assay: PCR gene expression of CD36 in PBMCs incubated with single HMOs; type: cell-based, human; settings: PBMCs of 3 donors, 0.5 mg/ml HMO, 5 h, average, control set as 1, GAPDH reference gene
Experimental: (§1) The effect of single HMOs on the expression of genes relevant to cholesterol metabolism and atherogenesis was tested using Peripheral Blood Mononuclear Cells (PBMCs) from 3 donors and incubated those cells with 0.5 g/l of single HMOs. The level of expression was determined using PCR.
(§2) Peripheral blood mononuclear cells (PBMC's) were isolated from a buffy coat using Sepmate tubes. The cells were diluted to a concentration of 1*10^7 cells per ml. The PBMC's were seeded in 6 wells plates and treated with 0.5 g/l of each HMO in PBMC culturing medium for 5 h prior to RNA isolation. Each HMO was mixed with 100 ug/ml final concentration of Polymyxin B to ensure neutralization of possible endotoxin contamination of HMOs, while equal amounts of Polymyxin B were used as a control.
(§3) 500 ng RNA, isolated from PBMCs, was translated into cDNA, using the quantitect reverse transcription kit (Qiagen). Primersets for the regulated genes (shown in the table below), were ordered at Qiagen (Quantitect primer assays). From each condition (PBMCs of 3 donors in control situation and after exposure towards HMOs (5 hrs)) cDNA (100×, 10× for genes which were low expressed) was amplified using the different primersets.
(§4) GAPDH (Glyceraldehyde-3-Phosphate Dehydrogenase) was used as a reference gene to quantify changes of gene expression between the control and the HMO-treated cells.
(§5) • GAPDH: Hs_GAPDH_vb.1_SG QuantiTect Primer Assay • IL19: Hs_IL19_1_SG QuantiTect Primer Assay • CD36: Hs_CD36_3_SG QuantiTect Primer Assay • GPR43/FFAR2: Hs_FFAR2_2_SG QuantiTect Primer Assay • ABCA1: Hs_ABCA1_1_SG QuantiTect Primer Assay
(§6) 19 commercially available HMO's that are present in human milk were tested. All gene expression values were calibrated to the Polymyxin B control of each respective donor (set arbitrary as 1). Average values for each gene compared to the Polymyxin B control are shown below (values above 1.5 fold or below 0.5 fold were considered physiologically relevant).

IL19 = assay: PCR gene expression of IL19 in PBMCs incubated with single HMOs; type: cell-based, human; settings: PBMCs of 3 donors, 0.5 mg/ml HMO, 5 h, average, control set as 1, GAPDH reference gene
Experimental: as §1, §2, §3, §4, §5, §6

GPR43/FFAR2 = assay: PCR gene expression of GPR43/FFAR2 in PBMCs incubated with single HMOs; type: cell-based, human; settings: PBMCs of 3 donors, 0.5 mg/ml HMO, 5 h, average, control set as 1, GAPDH reference gene
Experimental: as §1, §2, §3, §4, §5, §6

ABCA1 = assay: PCR gene expression of ABCA1 in PBMCs incubated with single HMOs; type: cell-based, human; settings: PBMCs of 3 donors, 0.5 mg/ml HMO, 5 h, average, control set as 1, GAPDH reference gene
Experimental: as §1, §2, §3, §4, §5, §6
2′FL was included too as it was expected that the most abundant HMO in human milk would show changes in any of these systems. […]

CD14+ CD36+ PBMC's = assay: Cholesterol uptake (Dil oxLDL) by FACS in PBMCs; type: cell-based; settings: 0.5 mg/ml, 4 hrs pre-incubation then 10 ug/ml Dil oxLDL 1 hour; gated on CD14+ CD36+ cells; FIG. 1

| Compound | glucose uptake (CPM of 3H-2-deoxyglucose) (Primary human adipocytes) | CD36 gene expression relative to Polymyxin B control (CD36) [fold] | IL19 gene expression relative to Polymyxin B control (IL19) [fold] | FFAR2 gene expression relative to Polymyxin B control (GPR43/FFAR2) [fold] | CD36 gene expression relative to Polymyxin B control (CD36; listed as LNF-III) | ABCA1 gene expression relative to Polymyxin B control (ABCA1) [fold] | cholesterol level in the cell, % of original value (MFI vs no glycan control with Dil oxLDL) (CD14+ CD36+ PBMC's) |
| --- | --- | --- | --- | --- | --- | --- | --- |
| Lipopolysaccharide [LPS] | did not upregulate glucose uptake at all |  |  |  |  |  |  |
| 3-Fucosyllactose [3FL] |  | 0.98 | 1.06 | 1.18 |  |  |  |
| CC(=O)N[C@H]1[C@H]([C@H](O)[C@H](O)CO)O[C@@](OC[C@H]2O[C@@H](O[C@H]3[C@H](O)[C@@H](O)[C@H](O)O[C@@H]3CO)[C@H](O)[C@@H](O)[C@H]2O)(C(=O)O)C[C@@H]1O [6′SL, 6′-Sialyllactose] |  | 0.93 | 1.05 | 1.83 |  |  |  |
| Lacto-N-fucopentaose III [LNFP-III] |  | 0.08 |  |  | reduce |  |  |
| C[C@@H]1O[C@@H](O[C@H]2[C@H](O[C@H]3[C@H](O)[C@@H](O)C(O)O[C@@H]3CO)O[C@H](CO)[C@H](O)[C@@H]2O)[C@@H](O)[C@H](O)[C@@H]1O (stereo partly drawn) [2′FL, 2′-fucosyllactose] | not significantly different from the vehicle control | 0.67 |  | 0.72 |  | 1.09 | about 91% |
| lactodifucoheaxose II [LNDFH-II] |  |  |  |  |  | 2.16 |  |
| CC(=O)N[C@H]1[C@H](O[C@H]2[C@@H](O)[C@@H](CO)O[C@@H](O[C@H]3[C@H](O)[C@@H](O)C(O)O[C@@H]3CO)[C@@H]2O)O[C@H](CO)[C@@H](O[C@@H]2O[C@H](CO)[C@H](O)[C@H](O)[C@H]2O)[C@@H]1O (mixture of isomers) [LNnT, lacto-N-neotetraose] |  | 0.93 | 0.93 | 0.93 |  |  |  |
| LNFP-I |  | 0.85 | 1.89 | 0.86 |  |  |  |
| C[C@@H]1O[C@@H](O[C@H]2[C@H](O[C@H]3[C@H](O[C@@H]4O[C@@H](C)[C@@H](O)[C@@H](O)[C@@H]4O)[C@@H](O)C(O)O[C@@H]3CO)O[C@H](CO)[C@H](O)[C@@H]2O)[C@@H](O)[C@H](O)[C@@H]1O (stereo partly drawn) [LDFT] |  | 1.00 | 0.75 | 1.64 |  |  |  |
| CC(=O)N[C@H]1[C@H]([C@H](O)[C@H](O)CO)O[C@@](O[C@H]2[C@@H](O)[C@@H](CO)O[C@@H](O[C@H]3[C@H](O)[C@@H](O)C(O)O[C@@H]3CO)[C@@H]2O)(C(=O)O)C[C@@H]1O (stereo partly drawn) [3′SL, 3′-Sialyllactose] |  | 0.87 | 1.24 | 1.25 |  |  |  |
| CC(=O)N[C@H]1[C@H]([C@H](O)[C@H](O)CO)O[C@@](O[C@H]2[C@@H](O)[C@@H](CO)O[C@@H](O[C@H]3[C@H](O[C@@H]4O[C@@H](C)[C@@H](O)[C@@H](O)[C@@H]4O)[C@@H](O)C(O)O[C@@H]3CO)[C@@H]2O)(C(=O)O)C[C@@H]1O (stereo partly drawn) [3S3FL] |  | 0.90 | 0.94 | 1.03 |  |  |  |
| CC(=O)N[C@H]1[C@H](O[C@H]2[C@@H](O)[C@@H](CO)O[C@@H](O[C@H]3[C@H](O)[C@@H](O)C(O)O[C@@H]3CO)[C@@H]2O)O[C@H](CO)[C@@H](O[C@@H]2O[C@H](CO[C@]3(C(=O)O)C[C@H](O)[C@@H](NC(C)=O)[C@H]([C@H](O)[C@H](O)CO)O3)[C@H](O)[C@H](O)[C@H]2O)[C@@H]1O (stereo partly drawn) [LSTc] |  | 0.90 | 1.25 | 1.02 |  |  |  |
| CC(=O)N[C@H]1[C@H](O[C@H]2[C@@H](O)[C@@H](CO)O[C@@H](O[C@H]3[C@H](O)[C@@H](O)C(O)O[C@@H]3CO)[C@@H]2O)O[C@H](CO)[C@@H](O)[C@@H]1O[C@@H]1O[C@H](CO)[C@H](O)[C@H](O)[C@H]1O (stereo partly drawn) [LNT, lacto-N-tetraose] |  | 0.93 | 0.93 | 0.93 |  |  |  |
| CC(=O)N[C@H]1[C@H](O[C@H]2[C@@H](O)[C@@H](CO)O[C@@H](O[C@@H]([C@H](O)[C@@H](O)C=O)[C@H](O)CO)[C@@H]2O)O[C@H](CO[C@]2(C(=O)O)C[C@H](O)[C@@H](NC(C)=O)[C@H]([C@H](O)[C@H](O)CO)O2)[C@@H](O)[C@@H]1O[C@@H]1O[C@H](CO)[C@H](O)[C@H](O[C@]2(C(=O)O)C[C@H](O)[C@@H](NC(C)=O)[C@H]([C@H](O)[C@H](O)CO)O2)[C@H]1O [DSLNT, disialyllacto-N-tetraose] |  |  |  |  |  | 2.02 |  |
| CC(=O)N[C@H]1[C@H](O[C@H]2[C@@H](O)[C@@H](CO)O[C@@H](O[C@@H]([C@H](O)[C@@H](O)C=O)[C@H](O)CO)[C@@H]2O)O[C@H](CO[C@]2(C(=O)O)C[C@H](O)[C@@H](NC(C)=O)[C@H]([C@H](O)[C@H](O)CO)O2)[C@@H](O)[C@@H]1O[C@@H]1O[C@H](CO)[C@H](O)[C@H](O)[C@H]1O [LSTb, sialyllacto-N-tetraose b] |  | 0.75 | 1.31 |  |  |  |  |
